Results as given in patent publication US20260248787A9, “MEDICAMENT FOR TREATING CANCER COMPRISING OPTICALLY ACTIVE AZABICYCLO RING DERIVATIVE” (Sumitomo Pharma Co., Ltd., priority 2023, published 2026).

Assay: Phase 1/2 first-in-human clinical study, safety evaluation (DLT, TEAE, SAE)
Conditions: for SAE Differentiation syndrome, CTCAE Grade: Related
[1] = cut-off, 40-300 mg BID, unrelated to study drug
[2] = patient US053A-0001, 80 mg BID Arm A, Not related, Recovered/Resolved
[3] = patient US154A-0002, 40 mg BID Arm B, Not related, Not recovered/Not resolved
[4] = patient US154A-0004, 100 mg BID Arm A, Not related, Recovered/Resolved
[5] = patient US185A-0001, 100 mg BID Arm A, Not related, Not recovered/Not resolved
[6] = patient US185A-0006, 120 mg BID Arm A, Not related, Fatal

Procedure: Arm A: Patients without azole antifungal treatment within 7 days (or 21 days for isavuconazole) of first dose of the present compound
Arm B: Patients receiving posaconazole, voriconazole, or fluconazole antifungal prophylaxis at enrollment
The safety of each dose level also was evaluated by the SRC, which was comprised of all investigators participating in the study and selected Sponsor study team members. The dose recommended by the BLRM method was treated as guidance and was integrated with a clinical assessment of toxicity information and review of other available data, including safety, PK, pharmacodynamic, and laboratory data.
When the Dose Limiting Toxicity (DLT) evaluation for each cohort was completed, the SRC determined a next dose level based on the DLT and other available data, including safety, PK, pharmacodynamic, and laboratory data with reference to the Bayesian Logistic Regression Model (BLRM) recommendation.
Dose escalation decisions were made after all patients in a dose level cohort have at least completed Cycle 1. All available data were presented along with the BLRM predictions for toxicity probabilities at the potential next dose levels. The SRC then determined the dose(s) for the next cohort(s).

C=C1C[C@@H]2CC[C@H]1[C@@H](C(=O)N1CCC3(CC1)CN(c1ncncc1Oc1ccc(F)cc1C(=O)N(C(C)C)C(C)C)C3)N2 [the present compound, 5-fluoro-2-[(4-{7-[(1S,3S,4R)-5-methylidene-2-azabicyclo[2.2.2]octane-3-carbonyl]-2,7-diazaspiro[3.5]nonan-2-yl}pyrimidin-5-yl)oxy]-N,N-di(propan-2-yl)benzamide]
Non-hematological TEAE regardless of causality: COVID-19 (N=57, Grade ≥3): 3 (5.3%) n (%) | Non-hematological TEAE regardless of causality: Constipation (N=57, Grade ≥3): 1 (1.8%) n (%) | Non-hematological TEAE regardless of causality: Cough (N=57, Grade ≥3): 0 (0.0%) n (%) | Non-hematological TEAE regardless of causality: Decreased appetite (N=57, Grade ≥3): 2 (3.5%) n (%) | Non-hematological TEAE regardless of causality: Diarrhoea (N=57, Grade ≥3): 0 (0.0%) n (%) | Non-hematological TEAE regardless of causality: Dizziness (N=57, Grade ≥3): 0 (0.0%) n (%) | Non-hematological TEAE regardless of causality: Dysgeusia (N=57, Grade ≥3): 0 (0.0%) n (%) | Non-hematological TEAE regardless of causality: Dyspnoea (N=57, Grade ≥3): 3 (5.3%) n (%) | Non-hematological TEAE regardless of causality: Electrocardiogram QT prolonged (N=57, Grade ≥3): 2 (3.5%) n (%) | Non-hematological TEAE regardless of causality: Epistaxis (N=57, Grade ≥3): 1 (1.8%) n (%) | Non-hematological TEAE regardless of causality: Fatigue (N=57, Grade ≥3): 1 (1.8%) n (%) | Non-hematological TEAE regardless of causality: Haemorrhage intracranial (N=57, Grade ≥3): 4 (7.0%) n (%) | Non-hematological TEAE regardless of causality: Headache (N=57, Grade ≥3): 0 (0.0%) n (%) | Non-hematological TEAE regardless of causality: Hypertension (N=57, Grade ≥3): 3 (5.3%) n (%) | Non-hematological TEAE regardless of causality: Hypotension (N=57, Grade ≥3): 2 (3.5%) n (%) | Non-hematological TEAE regardless of causality: Muscular weakness (N=57, Grade ≥3): 2 (3.5%) n (%) | Non-hematological TEAE regardless of causality: Myalgia (N=57, Grade ≥3): 0 (0.0%) n (%) | Non-hematological TEAE regardless of causality: Nausea (N=57, Grade ≥3): 4 (7.0%) n (%) | Non-hematological TEAE regardless of causality: Oedema peripheral (N=57, Grade ≥3): 0 (0.0%) n (%) | Non-hematological TEAE regardless of causality: Pain in extremity (N=57, Grade ≥3): 1 (1.8%) n (%) | Non-hematological TEAE regardless of causality: Pneumonia (N=57, Grade ≥3): 10 (17.5%) n (%) | Non-hematological TEAE regardless of causality: Pyrexia (N=57, Grade ≥3): 0 (0.0%) n (%) | Non-hematological TEAE regardless of causality: Sepsis (N=57, Grade ≥3): 10 (17.5%) n (%) | Non-hematological TEAE regardless of causality: Stomatitis (N=57, Grade ≥3): 0 (0.0%) n (%) | Non-hematological TEAE regardless of causality: Vomiting (N=57, Grade ≥3): 3 (5.3%) n (%) | Non-hematological laboratory change regardless of causality: ALT increase (N=57, Grade ≥3): 0 (0.0%) n (%) | Non-hematological laboratory change regardless of causality: AST increase (N=57, Grade ≥3): 1 (1.8%) n (%) | Non-hematological laboratory change regardless of causality: Hypertriglyceridemia (N=57, Grade ≥3): 4 (7.0%) n (%) | Non-hematological laboratory change regardless of causality: Hypocalcemia (N=57, Grade ≥3): 2 (3.5%) n (%) | Non-hematological laboratory change regardless of causality: Hypokalemia (N=57, Grade ≥3): 10 (17.2%) n (%) | Non-hematological laboratory change regardless of causality: Hypomagnesemia (N=57, Grade ≥3): 1 (1.8%) n (%) | Non-hematological laboratory change regardless of causality: Hyponatremia (N=57, Grade ≥3): 0 (0.0%) n (%) | Non-hematological laboratory change regardless of causality: Hypophosphatemia (N=57, Grade ≥3): 11 (19.3%) n (%) | Treatment related adverse event: Nausea (N=57, Grade ≥3): 1 (1.8%) n (%) | Treatment related adverse event: Vomiting (N=57, Grade ≥3): 1 (1.8%) n (%) | TEAE in ≥20% of patients regardless of causality: Fatigue (Total N=43, 40-200 mg BID): 10 (23.3%) n (%) | TEAE in ≥20% of patients regardless of causality: Hypokalaemia (Total N=43, 40-200 mg BID): 9 (20.9%) n (%) | TEAE in ≥20% of patients regardless of causality: Nausea (Total N=43, 40-200 mg BID): 15 (34.9%) n (%) | TEAE in ≥20% of patients regardless of causality: Vomiting (Total N=43, 40-200 mg BID): 10 (23.3%) n (%) | TEAE related to the present compound in ≥2 patients: Decreased appetite (Total N=43, 40-200 mg BID): 3 (7.0%) n (%) | TEAE related to the present compound in ≥2 patients: Nausea (Total N=43, 40-200 mg BID): 3 (7.0%) n (%) | TEAE related to the present compound in ≥2 patients: Vomiting (Total N=43, 40-200 mg BID): 4 (9.3%) n (%) | Possible differentiation syndrome (DS) (cut-off, 40-300 mg BID): 3 pts | TEAE assessed as related: nausea (cut-off, 40-300 mg BID): 12.1% | TEAE assessed as related: vomiting (cut-off, 40-300 mg BID): 15.5% | mortality from DS (cut-off, 40-300 mg BID): no mortality | Grade >3 TEAE: anemia [1]: 13.8% | Grade >3 TEAE: febrile neutropenia [1]: 15.5% | Grade >3 TEAE: platelet count decrease [1]: 12.1% | Grade >3 TEAE: pneumonia [1]: 17.2% | Grade >3 TEAE: sepsis [1]: 15.5% | DLT (cut-off, any dose level of 40-300 mg BID): No DLT | patients with related asymptomatic Grade 3 QT prolongation (cut-off, in the presence of other QT prolonging drugs): One | DLT (n=81, 40 mg BID to 300 mg BID): no DLT | Grade 3 nausea and vomiting (n=81, 40-300 mg BID): 1 patient | TEAE assessed as related: nausea (n=81, 40-300 mg BID): 12.3% | TEAE assessed as related: vomiting (n=81, 40-300 mg BID): 14.8% | TEAE regardless of relationship: decreased appetite (n=81, 40-300 mg BID): 21.0% | TEAE regardless of relationship: diarrhea (n=81, 40-300 mg BID): 21.0% | TEAE regardless of relationship: febrile neutropenia (n=81, 40-300 mg BID): 22.2% | TEAE regardless of relationship: hypokalemia (n=81, 40-300 mg BID): 21.0% | TEAE regardless of relationship: nausea (n=81, 40-300 mg BID): 37.0% | TEAE regardless of relationship: vomiting (n=81, 40-300 mg BID): 29.6% | grade ≥3 QTc prolongation related to the compound (n=81, 40-300 mg BID): no reports | SAE Sepsis, CTCAE Grade (patient JP002A-0001, 40 mg BID Arm A, Not related, Not recovered/Not resolved): 3 | SAE Malignant neoplasm progression, CTCAE Grade (patient JP002A-0003, 60 mg BID Arm B, Not related, Fatal): 5 | SAE Disease progression, CTCAE Grade (patient JP007A-0002, 60 mg BID Arm B, Not related, Not recovered/Not resolved): 3 | SAE Sepsis, CTCAE Grade (patient JP007A-0002, 60 mg BID Arm B, Not related, Recovered/Resolved): 4 | SAE Pneumonia, CTCAE Grade (patient JP028A-0001, 40 mg BID Arm B, Not related, Fatal): 5 | SAE Pneumonia, CTCAE Grade (patient JP028A-0001, 40 mg BID Arm B, Not related, Recovered/Resolved (one continuous event with the Grade 5)): 4 | SAE Haemorrhage intracranial, CTCAE Grade (patient US053A-0001, 80 mg BID Arm A, Not related, Fatal): 5 | SAE Atrial fibrillation, CTCAE Grade [2]: 3 | SAE Pneumonia, CTCAE Grade [2]: 3 | SAE Respiratory failure, CTCAE Grade [2]: 4 | SAE Differentiation syndrome, CTCAE Grade (patient US053A-0001, 80 mg BID Arm A, Drug interrupted, Recovered/Resolved): 4 | SAE Differentiation syndrome, CTCAE Grade (patient US053A-0001, 80 mg BID Arm A, action Not applicable, Recovered/Resolved): 3 | SAE Pneumonia, CTCAE Grade (patient US053A-0002, 40 mg BID Arm B, Not related, Recovered/Resolved): 3 | SAE Disease progression, CTCAE Grade (patient US154A-0001, 80 mg BID Arm A, Not related, Fatal): 5 | SAE Disease progression, CTCAE Grade (patient US154A-0002, 40 mg BID Arm B, Not related, Fatal): 5 | SAE Bone pain, CTCAE Grade [3]: 3 | SAE Malaise, CTCAE Grade [3]: 3 | SAE Pyrexia, CTCAE Grade [4]: 1 | SAE Respiratory failure, CTCAE Grade [4]: 2 | SAE Leukocytosis, CTCAE Grade (patient US154A-0004, 100 mg BID Arm A, Not related, Recovering/Resolving): 4 | SAE Leukocytosis, CTCAE Grade (patient US158A-0002, 120 mg BID Arm A, Not related, Recovered/Resolved): 1 | SAE Acute myeloid leukaemia, CTCAE Grade (patient US185A-0001, 100 mg BID Arm A, Not related, Fatal): 5 | SAE Cerebrovascular accident, CTCAE Grade [5]: 4 | SAE Haemorrhage intracranial, CTCAE Grade [5]: 2 | SAE Electrocardiogram QT prolonged, CTCAE Grade (patient US185A-0001, 100 mg BID Arm A, Not related, Recovered/Resolved, hypomagnesaemia at the time): 3 | SAE Febrile neutropenia, CTCAE Grade (patient US185A-0002, 40 mg BID Arm B, Not related, Recovered/Resolved): 3 | SAE Sepsis, CTCAE Grade (patient US185A-0002, 40 mg BID Arm B, Not related, Recovering/Resolving): 3 | SAE Lung infection (pneumonia), CTCAE Grade [6]: 5 | SAE Multiple organ dys function syndrome, CTCAE Grade [6]: 5 | SAE Sepsis, CTCAE Grade [6]: 5 | SAE Pneumonia fungal, CTCAE Grade (patient US210A-0001, 80 mg BID Arm A, Not related, Fatal): 5 | SAE Rectal haemorrhage, CTCAE Grade (patient US210A-0001, 80 mg BID Arm A, Not related, Recovered/Resolved): 4 | SAE Cellulitis, CTCAE Grade (patient US210A-0002, 120 mg BID Arm A, Not related, Recovered/Resolved): 3 | safety profile between Arm A and Arm B (without vs with azole antifungals): not different
